According to patent US10583141B2, “N-substituted hydroxamic acids with carbon-based leaving groups as efficient HNO donors and uses thereof” (The Johns Hopkins University, priority 2015, dated 2020):
Marks after values point to notes of the source that are not given here.

Key:
[1] = Decomposition kinetics via UV-VIS protocol (growth of pyrazolone byproduct absorbance); format: physicochemical; details: phosphate buffer; for decomposition (UV-VIS, in words): pH 7.4, 37° C.
Description: (§1) A UV-VIS protocol was used to determine the decomposition kinetics of compounds 1, 3, 5 and 6. According to this protocol, decomposition of Compound 5, was monitored by examining the growth of the distinctive absorbance of the pyrazolone byproduct (λ=265 nm) at pH 7.4 and 37° C. in phosphate buffer as a function of pH (Guthrie, D. A., Kim, N. Y., Siegler, M. A.; Moore, C. D., Toscano, J. P. J. Am. Chem. Soc. 2012, 134, 1962-1965; and Guthrie, D. A.; Ho, A.; Takahashi, C. G.; Collins, A., Morris, M.; Toscano, J. P. J. Org. Chem. 2015, 80, 1338-1348). The decomposition of rate is pH-dependent, and based on the experimental kinetic data, the pKa of Compound 5 was estimated to be 10.7. Following this protocol, the decomposition kinetics for compounds […] were determined. […] Thus, the pKa values of Compounds 1 (10.0) and 3 (9.1) in 50% (v/v) aqueous ethanol were measured by titration with NaOH solution.

[2] = Nitroxyl (HNO) production via N2O quantification in the headspace (GC), relative to Angeli's salt; details: N2O headspace analysis, 0.1 mM, 37° C. (SEM ± 5%; n = 3)
Source text: Nitrous oxide (N2O) is produced via the dimerization and dehydration of HNO, and is the most common marker for nitroxyl production (Fukuto et al., Chem. Res. Toxicol. 18:790-801 (2005)). […] Using either nitrous oxide gas or Angeli's salt (“AS”) as a standard, the relative amounts of N2O released from compounds of the disclosure is examined via gas chromatography (“GC”) headspace analysis.
Another procedure for determining N2O released from compounds of the disclosure is as follows. A Varian CP-3800 instrument equipped with a 1041 injector, electron capture detector, and a 25 m 5 Å molecular sieve capillary column was applied for the analysis of nitrous oxide (N2O). Grade 5.0 nitrogen was used as both the carrier (8 mL/min) and the make-up (22 mL/min) gas. For all the measurements, the column oven temperature was kept constant at 150° C., and the injector oven and the detector oven were held at 200° C. and 300° C., respectively. A 100 μL gastight syringe with a sample-lock was used for all gas injections. Samples were prepared in 6 mL Wheaton Clr headspace vials with volumes pre-measured for sample uniformity (actual vial volume ranges from 5.8-6.3 mL). Vials were charged with 3 mL of phosphate buffer containing the metal chelator, diethylenetriaminepentaacetic acid (DTPA), and fit with rubber septa and 20 mm aluminum seals. The vials were purged with argon and equilibrated for at least 10 minutes at 37° C. in a dry block heater. A 10 mM stock solution of Angeli's salt (AS) was prepared in 10 mM sodium hydroxide, and compounds of the disclosure (10 mM) were prepared in acetonitrile and used immediately after preparation. 30 μL of the stock solutions was transferred into vials using a gastight syringe, yielding final concentrations of 0.1 mM. Substrates were then incubated long enough to ensure complete decomposition and equilibration of N2O with the headspace. For each sample, 60 μL of the headspace was sampled and injected three times using a gastight syringe with a sample lock. The N2O yield was averaged and reported relative to the standard, Angeli's salt. HNO yields were measured either at the half-life of the donor or after complete decomposition of the donor and are reported relative to the standard HNO donor, Angeli's salt, as determined by N2O headspace analysis (SEM±5%; n=3).

[3] = Stability (half-life of donor decomposition) via 1H NMR protocol; format: physicochemical; details: 5 mM donor in 10% DMSO-d6, 10% D2O, 80% H2O, phosphate buffer (0.25M) with DTPA (0.2 mM), pH 7.4, 37° C., under argon
Source text: A ^1H NMR spectroscopy protocol was used to measure the half-life of donor decomposition by quantifying donor and the corresponding byproduct as a function of time (Guthrie, D. A.; Ho, A.; Takahashi, C. G.; Collins, A.; Morris, M.; Toscano, J. P. J. Org. Chem. 2015, 80, 1338-1348; and Guthrie, D. A.; Nourian, S.; Takahashi, C. G.; Toscano, J. P. J. Org. Chem. 2015, 80, 1349-1356). Based on distinctive chemical shifts of the compounds of the disclosure and their corresponding byproducts, the decomposition of the compounds of the disclosure and release of their byproduct was easily monitored. Utilizing this assay, the half-lives of particular compounds of the disclosure were determined under physiologically relevant conditions (Table 2).

[4] = pKa by titration with NaOH solution; format: physicochemical; details: 50% (v/v) aqueous ethanol
Description: as §1

[5] = Stability in the presence of a pyrazolone by 1H NMR (mechanistic study); format: physicochemical
Description: A ^1H NMR Spectroscopy Protocol was used to confirm the formation of nitroso carbonyls following decomposition of compound 5. In this protocol, 0.5 mM Compound 5 was incubated in the presence of 0.5 mM 3,4-dimethyl-N-phenylpyrazolone in 0.25 M phosphate buffer with 0.2 mM DTPA at pH 7.4, 80% H2O, 10% D2O, and 10% DMSO-d6 at 37° C. under argon. Spectra were collected at the start of the experiment and after complete decomposition.
To eliminate the possibility of direct attack of 3,4-dimethyl-1-phenyl-1H-pyrazol-5(4H)-one on the amidic nitrogen of hydroxamic acid moiety in Compound 1 through a SN2 reaction (Glover, S. A.; Rauk, A.; Buccigross, J. M.; Campbell. J. J.; Hammond, G. P.; Guoning, M.; Andrews. L. E.: Gillson, A. M. Can. J. Chem. 2005, 83, 1492-1509), the stability of Compound 11 in the presence of 4-(acetyl-O-methoxyoxime)-N-phenyl-3-methyl-pyrazolone was confirmed by ^1H NMR.

[6] = HNO yield at the half-life of the donor
[7] = HNO yield after complete decomposition of the donor

## CO/N=C(\C)C1(N(O)C(=O)OC)C(=O)N(c2ccccc2)N=C1C (stereo not shown) [Compound 3, Methyl hydroxy(4-(1-(methoxyimino)ethyl)-3-methyl-5-oxo-1-phenyl-4,5-dihydro-1H-pyrazol-4-yl)carbamate]
[1]
  decomposition (UV-VIS, in words): decomposed slowly
[2]; [6]
  % HNO: 104^a %
[3]
  half-life at 5 mM: 48 h
[4]
  pKa: 9.1

## CO/N=C(\C)C1(N(O)C(=O)N(C)C)C(=O)N(C)N=C1C (stereo not shown) [Compound 6, 1-hydroxy-1-(4-(1-(methoxyimino)ethyl)-1,3-dimethyl-5-oxo-4,5-dihydro-1H-pyrazol-4-yl)-3,3-dimethylurea]
[2]; [7]
  % HNO: >95^b %
[3]
  half-life at 5 mM: 0.767 h

## CO/N=C(\C)C1(N(O)C(=O)OC)C(=O)N(C)N=C1C (stereo not shown) [Compound 4, Methyl hydroxy(4-(1-(methoxyimino)ethyl)-1,3-dimethyl-5-oxo-4,5-dihydro-1H-pyrazol-4-yl)carbamate]
[2]; [6]
  % HNO: 94^a %
[3]
  half-life at 5 mM: 96 h

## CO/N=C(\C)C1(N(O)C(=O)N(C)C)C(=O)N(c2ccccc2)N=C1C (stereo not shown) [Compound 5, 1-hydroxy-1-(4-(1-(methoxyimino)ethyl)-3-methyl-5-oxo-1-phenyl-4,5-dihydro-1H-pyrazol-4-yl)-3,3-dimethylurea]
[1]; estimated from pH-dependent decomposition kinetic data, 37° C.
  pKa: 10.7
[2]; [7]
  % HNO: >95^b %
[3]
  half-life at 5 mM: 0.417 h

## CC(=O)N(O)C1(C)C(=O)N(c2ccccc2)N=C1C (stereo not shown) [Compound 11, N-hydroxy-N-(3,4-dimethyl-5-oxo-1-phenyl-4,5-dihydro-1H-pyrazol-4-yl)-acetamide]
[5]
  stability in the presence of 4-(acetyl-O-methoxyoxime)-N-phenyl-3-methyl-pyrazolone: confirmed

## CO/N=C(\C)C1(N(O)C(C)=O)C(=O)N(c2ccccc2)N=C1C (stereo not shown) [Compound 1, N-hydroxy-N-(4-(1-(methoxyimino)ethyl)-3-methyl-5-oxo-1-phenyl-4,5-dihydro-1H-pyrazol-4-yl)acetamide]
[1]
  decomposition (UV-VIS, in words): stable for 1 hour
[2]; [6]
  % HNO: 82^a %
[3]
  half-life at 5 mM: 120 h
[4]
  pKa: 10
